Reference: patent US20080003684A1, “DIAGNOSTIC METHOD FOR MYOPATHY” (priority 2006, published 2008)

Experiments:
human skeletal muscle [1] = assay: Whole genome microarray analysis in muscle biopsies, single-gene analysis; details: high dose statin treatment, criteria 1.5-fold change and p-value <0.05
human skeletal muscle [2] = assay: Gene set enrichment analysis (GSEA) of muscle microarray data; details: high dose statin treatment, FDR<0.25
CCL5 = assay: RealTime Quantitative TaqMan PCR of muscle RNA; type: in vivo, human; details: n=5, p=0.011
Protocol: (§1) Based on a hierarchical cluster analysis (described in Example 1) 20 genes were selected for further RT-PCR control in order to identify a gene expression based fingerprint for statin effect on human skeletal muscle.
(§2) The microarray expression results recorded in the simvastatin group (n=5, for one case there was not enough muscle RNA for PCR) were verified by RealTime Quantitative TaqMan PCR. Previously purified cRNA was used as starting material for cDNA synthesis. A 1000 ng-18 μl aliquote of cRNA was mixed with 1 μl Promega Random Primer (C1181, Promega U.S., Madison, Wis., USA) and incubated in +70° C. for 10 min. The following reagents were added leading to 25 μl total reaction volume: 1 μl of 10 μM dNTP blend (F09892, Applied Biosystems, Foster City, Calif., USA), 1 μl of Promega M-MLV Reverse Transcriptase 200 U/μl (M3682) and 4 μl of M-MLV RT 5× reaction buffer. Finally the incubations were performed in the following order: 10 min in RT, 50 min in 45° C., and, 10 min in 70° C. 10 μl volume was used for PCR reaction, consisting of 2 μl aliquote of 1:10 diluted cDNA sample, and, Abgene ABsolute 2×QPCR ROX mix (AB-1139, Abgene, Epsom, UK). The primer concentrations were 300 nM, probe concentrations for Universal Probe Library (Exiqon, Vedbaek, Denmark) probes 100 nM and for ordinary long probes 200 nM. Finally the PCR reactions were performed in rtPCR system (ABI Prism 7700 Sequence Detection System, Applied Biosystems) having the following PCR procedure: 95° C. for 15 min, and 40 cycles of 95° C. for 15 s and 60° C. for 1 min.

ALOX5AP = assay: RealTime Quantitative TaqMan PCR of muscle RNA; type: in vivo, human; details: n=5, p=0.041
Protocol: as §1, §2

MYBPH = assay: RealTime Quantitative TaqMan PCR of muscle RNA; type: in vivo, human; details: n=5, p=0.027
Protocol: as §1, §2

MYL5 = assay: RealTime Quantitative TaqMan PCR of muscle RNA; type: in vivo, human; details: n=5, p=0.021
Protocol: as §1, §2

COL3A1 = assay: RealTime Quantitative TaqMan PCR of muscle RNA; type: in vivo, human; details: n=5, p=0.026
Protocol: as §1, §2

CC(C)c1c(C(=O)Nc2ccccc2)c(-c2ccccc2)c(-c2ccc(F)cc2)n1CC[C@@H](O)C[C@@H](O)CC(=O)O [atorvastatin]
number of genes whose expression changed significantly during the intervention (human skeletal muscle [1]): five
number of pathways up-regulated / affected in GSEA (human skeletal muscle [2]): no pathways appeared to be affected significantly

CCC(C)(C)C(=O)O[C@H]1C[C@@H](C)C=C2C=C[C@H](C)[C@H](CC[C@@H]3C[C@@H](O)CC(=O)O3)[C@H]21 [simvastatin]
CCL5 expression change by RT-PCR (CCL5): +11.9 fold
ALOX5AP expression change by RT-PCR (ALOX5AP): +3.6 fold
MYBPH expression change by RT-PCR (MYBPH): +49.0 fold
MYL5 expression change by RT-PCR (MYL5): +8.0 fold
COL3A1 expression change by RT-PCR (COL3A1): +27.1 fold
number of genes up-regulated (human skeletal muscle [1]): 85 genes
number of genes whose expression changed significantly during the intervention (human skeletal muscle [1]): 111 genes
number of pathways up-regulated / affected in GSEA (human skeletal muscle [2]): 143 pathways
